# Results from patent US20160367502A1, “FILM COATED PELLETS” (RATIOPHARM GMBH, priority 2012, published 2016).
# Where two headings read alike, the source gives them in different places.
# Assay: Solubility in water at 25° C.
# Format: physicochemical
# Procedure: If it is not known, it can be determined by conventional methods. […] The amount or concentration of the active pharmaceutical ingredient in the solution is determined by analytical techniques known in the art.
# [1] = sitagliptin salts, water, 25° C.
Compound,Solubility of sitagliptin salts in water at 25° C. [1] [mg/mL],Solubility of sitagliptin salts in water at 25° C. [mg/mL]
"N[C@@H](CC(=O)N1CCn2c(nnc2C(F)(F)F)C1)Cc1cc(F)c(F)cc1F.O=C[C@H](O)[C@@H](O)[C@H](O)[C@H](O)C(=O)O [D-Glucuronate, sitagliptin D-glucuronate]",>500,
"N[C@@H](CC(=O)N1CCn2c(nnc2C(F)(F)F)C1)Cc1cc(F)c(F)cc1F.O=P(O)(O)O [Dihydrogen phosphate, sitagliptin dihydrogen phosphate]",100 to 120,
sitagliptin glutarate,,>500
